Test [1] relates to eukaryotic translation initiation factor 2 alpha (eIF2α). Put plainly: eIF2α phosphorylation by immunofluorescence with phosphoneoepitope-specific antibody. To be noted: U2OS; 10, 50 or 100 nM; 6 hours. Format: cell-based, human. Here is the method: (§1) Human osteosarcoma U2OS cells were treated with 10, 50 or 100 nM lurbinectedin (Lurbi) for 6 hours. Thapsigargin (Thaps, 3 μM) was used as a positive control. The cells were fixed with 3.7% PFA and DNA was stained with 1 μM Hoechst 33342. Following the phosphorylation of the eukaryotic translation initiation factor 2 alpha (eIF2a) was assessed with phosphoneoepitope-specific antibody and was monitored by means of automated microscopy as an increase in cytoplasmic fluorescence intensity. (a,b) The level of transcription was measured in U2OS cell treated as above with Lurbi. The transcription inhibitor actinomycin D (ActD) was used as a control. The cells were fixed as above and following the colocalization of nucleolin and fibrillarin was assessed as an indicator for transcriptional activity (c,d) Scale bar equals 10 μm and bar charts depict mean values±SD of quadruplicate assessments (*p<0.01; *p<0.001, two-tailed Student's t test).
(§2) In a systematic screening campaign, the capacity of lurbinectedin to induce immunogenic cell death in cancer cells was assessed in human osteosarcoma U2OS cells stably expressing fluorescent biosensors for the detection of CALR-relocation (as a surrogate marker for CALR surface exposure), HMGB1 release and Type I IFN responses together with U2OS WT cells stained with the ATP-sensitive dye quinacrine. […]

Test [2] deals with U2OS biosensor cells expressing GFP under the MX1 promoter. Put plainly: Type I IFN response (MX1-GFP biosensor cells treated with supernatant). Format: cell-based, human. The following applies: supernatant of treated U2OS cells after 48 hours fresh media; biosensor cells 48 hours; throughout all time points. Here is the method:
In a systematic screening campaign, the capacity of lurbinectedin to induce immunogenic cell death in cancer cells was assessed in human osteosarcoma U2OS cells stably expressing fluorescent biosensors for the detection of CALR-relocation (as a surrogate marker for CALR surface exposure), HMGB1 release and Type I IFN responses together with U2OS WT cells stained with the ATP-sensitive dye quinacrine. […] The induction of cell death was evaluated based on changes in the nuclear morphology visualized by means of the DNA intercalating dye Hoechst 33342.

A further test has as its system U2OS WT cells. Briefly: Cytoplasmic quinacrine granularity (intracellular ATP, indicator of ATP release). Format: cell-based, human. To be noted: lurbinectedin 1 nM to 1 μM, MTX 1 and 3 μM, dose-dependent, decreased over time, vs untreated controls. As to the method:
(§3) (a) Human osteosarcoma U2OS (a), human breast cancer HCC70 (b) human colon cancer HT29 cells (c) and murine methylcholantrene-induced fibrosarcoma MCA205 cells (d) were treated with lurbinectedin (Lurbi, 1 nM, 10 nM, 100 nM and 1 μM) for the indicated times. Subsequently, the cells were stained with 1 μM Hoechst 33342 and 1 μM propidium iodide and assessed for the loss of viability by automated image acquisition. Images were segmented, cellular debris was excluded and the number of cells with normal nuclear morphology was enumerated. Cells stably expressing CALR-GFP were treated as above. Following the cells were fixed with 3.7% of PFA, stained with 1 μM Hoechst 33342 and assessed by automated image acquisition. Images were segmented, cellular debris was excluded and CALR-GFP granularity (a surrogate marker of CALR exposure) was evaluated in the cytoplasmic region of cells with normal nuclear morphology. Wild type cells were treated as above and then assessed for cytoplasmic quinacrine granularity (after staining with the ATP-sensitive dye quinacrine together with Hoechst 33342) by automated image acquisition, segmentation and analysis. Cells stably expressing HMGB1-GFP were treated as above and then assessed for nuclear HMGB1-GFP fluorescence intensity. The cells were fixed and stained with Hoechst 33342 and images were acquired, segmented and analyzed. […]

For test [3], the system named is human osteosarcoma U2OS cells. Put plainly: Loss of viability by nuclear morphology (Hoechst 33342), automated microscopy. Format: cell-based. The following applies: lurbinectedin 1 nM to 1 μM, 4, 8, 16 and 32 hours, comparable to MTX 1 and 3 μM. Here is the method: as §3
The subject of test [4] is U2OS cells stably expressing CALR-GFP. Put plainly: CALR-GFP granularity (surrogate marker of CALR exposure). The following applies: lurbinectedin 1 nM to 1 μM, MTX 1 and 3 μM, 4-32 hours, vs untreated controls. Format: cell-based, human. As to the method: as §3
In test [5] the test system is Murine fibrosarcoma MCA205 cells. Briefly: In vitro cell death of MCA205 cells prepared for vaccination. Format: cell-based, mouse. The following applies: 1 μM lurbinectedin for 24 h.
Test [6] deals with mRNA transcription in U2OS cells. Briefly: Transcription level by nucleolin/fibrillarin colocalization. Format: cell-based, human. The following applies: 10, 50 or 100 nM, actinomycin D as control. As to the method: as §1, §2

As to `COc1ccc2[nH]c3c(c2c1)CCN[C@]31CS[C@@H]2c3c(OC(C)=O)c(C)c4c(c3[C@H](COC1=O)N1[C@@H]2[C@H]2c3c(cc(C)c(OC)c3O)C[C@@H]([C@@H]1O)N2C)OCO4` [lurbinectedin], the “phosphorylation of eIF2α” value in test [1] is “dose-dependent phosphorylation”. Also, in test [2], the “de novo GFP signal intensity (type 1 IFN response)” value is reported as “significant increase”. Further, the “ATP signal (cytoplasmic quinacrine granularity)” value in the test with U2OS WT cells is “significant decrease”. Also, the cellular viability entry in test [3] is “dose- and time-dependent drop”. In test [4], the CALR-granularity entry was “time- and dose-dependent increase”. Also, in test [5], the cell death result was “approximately 70%”. In addition, in test [6], the “mRNA transcription (dissociation of nucleolin and fibrillarin)” value is listed as “inhibited mRNA transcription at a level comparable to a known transcription-inhibitor”.

Values taken from patent US20250295656A1, “COMBINATION OF LURBINECTEDIN AND IMMUNE CHECKPOINT INHIBITORS” (priority 2020, published 2025).
